# From patent US12415776B2, “Lipid nanoparticle compositions for delivering circular polynucleotides” (Orna Therapeutics, Inc., priority 2021, dated 2025)
# Experiments:
# [1] = tested on: splenic T cells; assay: mOX40L expression in splenic T cells after IV LNP-circular RNA; format: in vivo, C57BL/6 mice; conditions: 1 mg/kg intravenously, 24 hours
# Procedure: The ionizable lipid:helper lipid:cholesterol:PEG-lipid molar ratio of these LNPs was 50:10:38.5:1.5. C57BL/6 female mice (6-8 weeks, n=4) were dosed at 1 mg/kg intravenously. At 24 hours, the spleen from the mice were collected for flow cytometry analysis, tested for weight loss and measured for serum alanine aminotransferase (ALT) after blood collection. mOX40L expression was measured in splenic T cells.
# [2] = tested on: splenic immune cells (T cells, myeloid cells, B cells, NK cells); assay: mOX40L expression in splenic immune cells after IV LNP-circular RNA (flow cytometry); format: in vivo, C57BL/6 mice; conditions: 1 mg/kg intravenously, 24 hours, IL:P 5.7, 50:10:38.5:1.5
# Procedure: The ionizable lipid:helper lipid:cholesterol:PEG-lipid molar ratio of these LNPs was 50:10:38.5:1.5. Dialysis of the LNPs were performed using PBS. C57BL/6 female mice (6-8 weeks, n=4) were dosed at either LNP comprising Lipid 1 of Table […] or the Lipid 15 of Table 10f at 1 mg/kg intravenously.
smiles,measurement,setting,value
CCCCCCCCCCCCC(O)CN(CCCO)CCCCCCCC(=O)OC(CCCCCCCC)CCCCCCCC (centres unmarked) [Lipid 1 of Table 10e],mOX40L expression in splenic T cells,[1],resulted in expression of mOX40L in splenic T cells
same,mOX40L transfection in splenic immune cells,[2],comparable or higher levels of mOX40L transfection
